Data from patent US11219221B2 (FarmHannong Co., Ltd., priority 2017, dated 2022).

test system: CyPPO16 wild type (SEQ ID NO: 1) in PPO-deficient E. coli BT3(ΔPPO); format: cell-based; conditions: LB agar, 37° C., light, 16 to 20 hours
Protocol: (§1) The mutated CyPPO gene obtained from the Example 2 was transformed to BT3 (ΔPPO) strain which is deficient of PPO activity and cultured in LB media with PPO-inhibiting herbicide, thereby examining whether growth of transformed BT3 was not inhibited.
(§2) BT3 competent cells were transformed with the pET303-CyPPO16 and pET303-CyPPO17 plasmids and those with a mutation(s) constructed in Example 2 respectively, and were cultured in LB agar media containing carbenicillin (Gold Biotechnology, Co., Ltd.).
(§3) Single colony of E. coli transformed with each CyPPO gene was cultured in 3 ml of LB broth containing carbenicillin overnight, and then was subcultured until absorbance (0D600) reached 0.5 to 1. Then, it was diluted with LB broth to OD600=0.5. Again, the diluted solution was serially diluted 4 times by a factor of one tenth.
(§4) The LB agar media (LB 25 g/l, Bacto agar 15 g/l) containing carbenicillin (100 μg/ml) and 0 to 4,000 μM of various herbicides dissolved in DMSO was prepared. Next, 10 μl of each diluted solution was dropped on the plate and cultured at 37° C. under light (Tables 7 and 9, FIGS. 2 to 6, and 18 to 22) or dark (Tables 8 and 10, FIGS. 7 to 17, and 23 to 33) for 16 to 20 hours. Then, extent of tolerance was evaluated.
(§5) The extent of herbicide tolerance of the mutated genes was evaluated by comparing that of mutated genes with that of wild type. The relative tolerance was represented with “+” as a factor of 10 times. Evaluation result was listed in Tables 7 to10 and FIGS. 2 to 33:
(§6) In Tables 7 to 10, tolerance level was presented as of tolerance of wild type and of variants equivalent to that of wild type, and was done as ‘+’ per each 10 fold resistance until ‘+++++’ as maximal resistance. (Tolerance level was evaluated by relative growth level of variants to that of wild type in the media containing highest concentration of herbicide; ‘+’=1-9 fold higher tolerance, ‘++’=10-99 fold higher tolerance, ‘+++’=100-999 fold higher tolerance, ‘++++’=1,000-9,999 fold higher tolerance, ‘+++++’=more than 10,000 fold higher tolerance)

Q: For CS(=O)(=O)NC(=O)c1cc(Oc2ccc(C(F)(F)F)cc2Cl)ccc1[N+](=O)[O-] [fomesafen], which “Herbicide tolerance (relative to wild type)” value is on record?
A: −

Q: How did the “Herbicide tolerance (relative to wild type)” value turn out when CCOC(=O)COc1cc(-c2nn(C)c(OC(F)F)c2Cl)c(F)cc1Cl [pyraflufen-ethyl] was run?
A: −

test system: CyPPO17 wild type (SEQ ID NO: 3) in PPO-deficient E. coli BT3(ΔPPO); format: cell-based; conditions: LB agar, 37° C., light, 16 to 20 hours
Protocol: as §1, §2, §3, §4, §5, §6

Q: With CS(=O)(=O)NC(=O)c1cc(Oc2ccc(C(F)(F)F)cc2Cl)ccc1[N+](=O)[O-] [fomesafen] as the compound, how does the “Herbicide tolerance (relative to wild type)” value read?
A: −

Q: For CCOC(=O)COc1cc(-c2nn(C)c(OC(F)F)c2Cl)c(F)cc1Cl [pyraflufen-ethyl], which “Herbicide tolerance (relative to wild type)” value is on record?
A: −

test system: CyPPO16 (SEQ ID NO: 1) variant A162C in PPO-deficient E. coli BT3(ΔPPO); format: cell-based; conditions: LB agar, 37° C., light, 16 to 20 hours
Protocol: as §1, §2, §3, §4
(§7) The extent of herbicide tolerance of the mutated genes was evaluated by comparing that of mutated genes with that of wild type. The relative tolerance was represented with “+” as a factor of 10 times.
(§8) In Tables 7 to 10, tolerance level was presented as of tolerance of wild type and of variants equivalent to that of wild type, and was done as ‘+’ per each 10 fold resistance until ‘+++++’ as maximal resistance.

Q: Which “Herbicide tolerance (relative to wild type)” value does the source give for CS(=O)(=O)NC(=O)c1cc(Oc2ccc(C(F)(F)F)cc2Cl)ccc1[N+](=O)[O-] [fomesafen] here?
A: ++ (10-99 fold higher tolerance)

Q: How did the “Herbicide tolerance (relative to wild type)” value turn out when CCOC(=O)COc1cc(-c2nn(C)c(OC(F)F)c2Cl)c(F)cc1Cl [pyraflufen-ethyl] was run?
A: +++ (100-999 fold higher tolerance)

test system: CyPPO16 (SEQ ID NO: 1) variant A162L in PPO-deficient E. coli BT3(ΔPPO); format: cell-based; conditions: LB agar, 37° C., light, 16 to 20 hours
Protocol: as §1, §2, §3, §4, §7, §8

Q: How did the “Herbicide tolerance (relative to wild type)” value turn out when CS(=O)(=O)NC(=O)c1cc(Oc2ccc(C(F)(F)F)cc2Cl)ccc1[N+](=O)[O-] [fomesafen] was run?
A: ++ (10-99 fold higher tolerance)

Q: CCOC(=O)COc1cc(-c2nn(C)c(OC(F)F)c2Cl)c(F)cc1Cl [pyraflufen-ethyl] was tested. Which “Herbicide tolerance (relative to wild type)” value did it give?
A: +++ (100-999 fold higher tolerance)

test system: CyPPO16 (SEQ ID NO: 1) variant F360C in PPO-deficient E. coli BT3(ΔPPO); format: cell-based; conditions: LB agar, 37° C., light, 16 to 20 hours
Protocol: as §1, §2, §3, §4, §7, §8

Q: For CS(=O)(=O)NC(=O)c1cc(Oc2ccc(C(F)(F)F)cc2Cl)ccc1[N+](=O)[O-] [fomesafen], which “Herbicide tolerance (relative to wild type)” value is on record?
A: ++ (10-99 fold higher tolerance)

Q: How did the “Herbicide tolerance (relative to wild type)” value turn out when CCOC(=O)COc1cc(-c2nn(C)c(OC(F)F)c2Cl)c(F)cc1Cl [pyraflufen-ethyl] was run?
A: +++ (100-999 fold higher tolerance)

test system: CyPPO16 (SEQ ID NO: 1) variant F360I in PPO-deficient E. coli BT3(ΔPPO); format: cell-based; conditions: LB agar, 37° C., light, 16 to 20 hours
Protocol: as §1, §2, §3, §4, §7, §8

Q: For CS(=O)(=O)NC(=O)c1cc(Oc2ccc(C(F)(F)F)cc2Cl)ccc1[N+](=O)[O-] [fomesafen], which “Herbicide tolerance (relative to wild type)” value is on record?
A: + (1-9 fold higher tolerance)

Q: With CCOC(=O)COc1cc(-c2nn(C)c(OC(F)F)c2Cl)c(F)cc1Cl [pyraflufen-ethyl] as the compound, how does the “Herbicide tolerance (relative to wild type)” value read?
A: ++ (10-99 fold higher tolerance)

test system: CyPPO16 (SEQ ID NO: 1) variant F360L in PPO-deficient E. coli BT3(ΔPPO); format: cell-based; conditions: LB agar, 37° C., light, 16 to 20 hours
Protocol: as §1, §2, §3, §4, §7, §8

Q: For CS(=O)(=O)NC(=O)c1cc(Oc2ccc(C(F)(F)F)cc2Cl)ccc1[N+](=O)[O-] [fomesafen], which “Herbicide tolerance (relative to wild type)” value is on record?
A: +++ (100-999 fold higher tolerance)

Q: With CCOC(=O)COc1cc(-c2nn(C)c(OC(F)F)c2Cl)c(F)cc1Cl [pyraflufen-ethyl] as the compound, how does the “Herbicide tolerance (relative to wild type)” value read?
A: ++ (10-99 fold higher tolerance)

test system: CyPPO16 (SEQ ID NO: 1) variant F360M in PPO-deficient E. coli BT3(ΔPPO); format: cell-based; conditions: LB agar, 37° C., light, 16 to 20 hours
Protocol: as §1, §2, §3, §4, §7, §8

Q: How did the “Herbicide tolerance (relative to wild type)” value turn out when CS(=O)(=O)NC(=O)c1cc(Oc2ccc(C(F)(F)F)cc2Cl)ccc1[N+](=O)[O-] [fomesafen] was run?
A: +++ (100-999 fold higher tolerance)

Q: With CCOC(=O)COc1cc(-c2nn(C)c(OC(F)F)c2Cl)c(F)cc1Cl [pyraflufen-ethyl] as the compound, how does the “Herbicide tolerance (relative to wild type)” value read?
A: ++ (10-99 fold higher tolerance)

test system: CyPPO16 (SEQ ID NO: 1) variant F360V in PPO-deficient E. coli BT3(ΔPPO); format: cell-based; conditions: LB agar, 37° C., light, 16 to 20 hours
Protocol: as §1, §2, §3, §4, §7, §8

Q: For CS(=O)(=O)NC(=O)c1cc(Oc2ccc(C(F)(F)F)cc2Cl)ccc1[N+](=O)[O-] [fomesafen], which “Herbicide tolerance (relative to wild type)” value is on record?
A: + (1-9 fold higher tolerance)

Q: With CCOC(=O)COc1cc(-c2nn(C)c(OC(F)F)c2Cl)c(F)cc1Cl [pyraflufen-ethyl] as the compound, how does the “Herbicide tolerance (relative to wild type)” value read?
A: ++ (10-99 fold higher tolerance)

test system: CyPPO16 (SEQ ID NO: 1) variant V305M in PPO-deficient E. coli BT3(ΔPPO); format: cell-based; conditions: LB agar, 37° C., light, 16 to 20 hours
Protocol: as §1, §2, §3, §4, §7, §8

Q: Which “Herbicide tolerance (relative to wild type)” value does the source give for CS(=O)(=O)NC(=O)c1cc(Oc2ccc(C(F)(F)F)cc2Cl)ccc1[N+](=O)[O-] [fomesafen] here?
A: ++ (10-99 fold higher tolerance)

Q: How did the “Herbicide tolerance (relative to wild type)” value turn out when CCOC(=O)COc1cc(-c2nn(C)c(OC(F)F)c2Cl)c(F)cc1Cl [pyraflufen-ethyl] was run?
A: +++ (100-999 fold higher tolerance)

test system: CyPPO17 (SEQ ID NO: 3) variant A166C in PPO-deficient E. coli BT3(ΔPPO); format: cell-based; conditions: LB agar, 37° C., light, 16 to 20 hours
Protocol: as §1, §2, §3, §4, §7, §8

Q: CS(=O)(=O)NC(=O)c1cc(Oc2ccc(C(F)(F)F)cc2Cl)ccc1[N+](=O)[O-] [fomesafen] was tested. Which “Herbicide tolerance (relative to wild type)” value did it give?
A: + (1-9 fold higher tolerance)

Q: CCOC(=O)COc1cc(-c2nn(C)c(OC(F)F)c2Cl)c(F)cc1Cl [pyraflufen-ethyl] was tested. Which “Herbicide tolerance (relative to wild type)” value did it give?
A: ++ (10-99 fold higher tolerance)

test system: CyPPO17 (SEQ ID NO: 3) variant A166L in PPO-deficient E. coli BT3(ΔPPO); format: cell-based; conditions: LB agar, 37° C., light, 16 to 20 hours
Protocol: as §1, §2, §3, §4, §7, §8

Q: How did the “Herbicide tolerance (relative to wild type)” value turn out when CS(=O)(=O)NC(=O)c1cc(Oc2ccc(C(F)(F)F)cc2Cl)ccc1[N+](=O)[O-] [fomesafen] was run?
A: ++ (10-99 fold higher tolerance)

Q: Which “Herbicide tolerance (relative to wild type)” value does the source give for CCOC(=O)COc1cc(-c2nn(C)c(OC(F)F)c2Cl)c(F)cc1Cl [pyraflufen-ethyl] here?
A: ++ (10-99 fold higher tolerance)

test system: CyPPO17 (SEQ ID NO: 3) variant F359C in PPO-deficient E. coli BT3(ΔPPO); format: cell-based; conditions: LB agar, 37° C., light, 16 to 20 hours
Protocol: as §1, §2, §3, §4, §7, §8

Q: With CS(=O)(=O)NC(=O)c1cc(Oc2ccc(C(F)(F)F)cc2Cl)ccc1[N+](=O)[O-] [fomesafen] as the compound, how does the “Herbicide tolerance (relative to wild type)” value read?
A: + (1-9 fold higher tolerance)

Q: How did the “Herbicide tolerance (relative to wild type)” value turn out when CCOC(=O)COc1cc(-c2nn(C)c(OC(F)F)c2Cl)c(F)cc1Cl [pyraflufen-ethyl] was run?
A: + (1-9 fold higher tolerance)

test system: CyPPO17 (SEQ ID NO: 3) variant F359I in PPO-deficient E. coli BT3(ΔPPO); format: cell-based; conditions: LB agar, 37° C., light, 16 to 20 hours
Protocol: as §1, §2, §3, §4, §7, §8

Q: For CS(=O)(=O)NC(=O)c1cc(Oc2ccc(C(F)(F)F)cc2Cl)ccc1[N+](=O)[O-] [fomesafen], which “Herbicide tolerance (relative to wild type)” value is on record?
A: + (1-9 fold higher tolerance)

Q: CCOC(=O)COc1cc(-c2nn(C)c(OC(F)F)c2Cl)c(F)cc1Cl [pyraflufen-ethyl] was tested. Which “Herbicide tolerance (relative to wild type)” value did it give?
A: ++ (10-99 fold higher tolerance)

test system: CyPPO17 (SEQ ID NO: 3) variant F359L in PPO-deficient E. coli BT3(ΔPPO); format: cell-based; conditions: LB agar, 37° C., light, 16 to 20 hours
Protocol: as §1, §2, §3, §4, §7, §8

Q: How did the “Herbicide tolerance (relative to wild type)” value turn out when CS(=O)(=O)NC(=O)c1cc(Oc2ccc(C(F)(F)F)cc2Cl)ccc1[N+](=O)[O-] [fomesafen] was run?
A: + (1-9 fold higher tolerance)

Q: CCOC(=O)COc1cc(-c2nn(C)c(OC(F)F)c2Cl)c(F)cc1Cl [pyraflufen-ethyl] was tested. Which “Herbicide tolerance (relative to wild type)” value did it give?
A: ++ (10-99 fold higher tolerance)

test system: CyPPO17 (SEQ ID NO: 3) variant F359M in PPO-deficient E. coli BT3(ΔPPO); format: cell-based; conditions: LB agar, 37° C., light, 16 to 20 hours
Protocol: as §1, §2, §3, §4, §7, §8

Q: CS(=O)(=O)NC(=O)c1cc(Oc2ccc(C(F)(F)F)cc2Cl)ccc1[N+](=O)[O-] [fomesafen] was tested. Which “Herbicide tolerance (relative to wild type)” value did it give?
A: ++ (10-99 fold higher tolerance)

Q: For CCOC(=O)COc1cc(-c2nn(C)c(OC(F)F)c2Cl)c(F)cc1Cl [pyraflufen-ethyl], which “Herbicide tolerance (relative to wild type)” value is on record?
A: ++ (10-99 fold higher tolerance)

test system: CyPPO17 (SEQ ID NO: 3) variant V304M in PPO-deficient E. coli BT3(ΔPPO); format: cell-based; conditions: LB agar, 37° C., light, 16 to 20 hours
Protocol: as §1, §2, §3, §4, §7, §8

Q: How did the “Herbicide tolerance (relative to wild type)” value turn out when CS(=O)(=O)NC(=O)c1cc(Oc2ccc(C(F)(F)F)cc2Cl)ccc1[N+](=O)[O-] [fomesafen] was run?
A: ++ (10-99 fold higher tolerance)

Q: Which “Herbicide tolerance (relative to wild type)” value does the source give for CCOC(=O)COc1cc(-c2nn(C)c(OC(F)F)c2Cl)c(F)cc1Cl [pyraflufen-ethyl] here?
A: + (1-9 fold higher tolerance)
